Two compounds from US7544814B2, “[3.2.0] Heterocyclic compounds and methods of using the same” (Nereus Pharmaceuticals, Inc., priority 2004, dated 2009) can be followed below.

Several values for one entry are separate records, joined by “and”; a condition that tells them apart may be missing. Identical values can stand only once.

One data set relates to HT-29. The experiment in a line: Cell growth inhibition (resazurin), HT-29. Particulars: from EC50 values. For orientation: The colour change of resazurin is a common sign of viable cells or microbes.
In another data set the test system is HL-60/MX2. The experiment in a line: Cell growth inhibition (resazurin), multidrug resistant HL-60/MX2. Particulars: from EC50 values. The method, then:
Concentrations ranging from 6.32 μM to 2 nM were tested for II-2 and II-4.
HL-60/MX2 is a multidrug resistant tumor cell line derived from the human promyelocytic leukemia cell line, HL-60 and expresses reduced topoisomerase II activity. […] Mitoxantrone, the topoisomerase II targeting agent was included as a control.

The test system of another data set is NCI-H292. Description: Cell growth inhibition (resazurin), NCI-H292. As to conditions: from EC50 values.
Another data set deals with MES-SA. The experiment in a line: Cell growth inhibition (resazurin), MES-SA. The class given is cell-based, human. As to conditions: from EC50 values.
The subject of a further data set is B16-F10. The experiment in a line: Cell growth inhibition (resazurin), B16-F10. Particulars: from EC50 values.
A further data set concerns HL-60. Description: Cell growth inhibition (resazurin), HL-60. As to conditions: from EC50 values. The class given is cell-based, human.
Data set [1] has as its target T1, chymotrypsin-like activity of 20S proteasomes in PC-3 cells (Homo sapiens, UniProt P28074).
T1 construct: endogenous in cells; host or cells: PC-3 (ATCC CRL-1435)
The experiment in a line: Chymotrypsin-like activity of 20S proteasomes in lysates of treated PC-3 cells. The class given is cell-based. Particulars: PC-3, read-out: % inhibition of the chymotrypsin-like activity of 20S proteasomes in PC-3 cell lysates; 100 nM; 1 hr incubation. The method, then: PC-3 (ATCC, CRL-1435), the human prostate cancer cell line, was cultured in F12K medium supplemented with 2 mM L-glutamine, 100 units/ml penicillin, 100 μg/ml streptomycin and 10% heat inactivated fetal bovine serum at 37° C., 5% CO2 and 95% humidified air. […] DMSO was used as the vehicle control at a final concentration of 0.1%. Following 1 hr incubation of PC-3 cells with the compounds, the cells were washed 3× with ice-cold 1× Dulbecco's Phosphate-Buffered Saline (DPBS, Mediatech, Herndon, Va.). […] Cell debris was pelleted by centrifugation at 14,000 rpm for 10 min, 4° C. and supernatants (=cell lysates) were transferred to a new tube. Protein concentration was determined by the BCA protein assay kit (Pierce Biotechnology, Rockford, Ill.). […] The released coumarin (AMC) was measured fluorometrically by using λex=390 nm and λem=460 nm. The assay was performed in a microtiter plate (Corning 3904) and followed kinetically with measurements every five minutes for 2 hr. The total amount of protein used for each assay was 20 μg. The final concentration of Suc-LLVY-AMC and DMSO was 20 μM and 0.2%, respectively. Results are presented as the percent inhibition of the 20S proteasome chymotrypsin-like activity relative to the DMSO control.

For data set [2], the target named is T2, chymotrypsin-like activity of 20S proteasomes in RPMI 8226 cells (Homo sapiens, UniProt P28074).
T2 construct: added to 2.5×10^5/ml RMPI 8226 cells; endogenous in cells; host or cells: RPMI 8226 (ATCC CCL-155)
T2 sequence (P28074 60-263): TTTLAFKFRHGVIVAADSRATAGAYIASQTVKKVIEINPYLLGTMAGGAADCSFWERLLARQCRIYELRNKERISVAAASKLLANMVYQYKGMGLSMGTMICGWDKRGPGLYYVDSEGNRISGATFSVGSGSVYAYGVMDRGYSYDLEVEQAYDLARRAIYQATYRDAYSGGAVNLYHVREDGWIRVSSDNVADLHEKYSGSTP
The experiment in a line: Chymotrypsin-like activity of 20S proteasomes in lysates of treated RPMI 8226 cells. The class given is cell-based. Particulars: RPMI-8226, read-out: % inhibition of the chymotrypsin-like activity of 20S proteasomes in RPMI 8226 cell lysates. As for the experimental part: RPMI 8226 (ATCC, CCL-155), the human multiple myeloma cell line, was cultured in RPMI 1640 medium supplemented with 2 mM L-glutamine, 100 units/ml penicillin, 100 μg/ml streptomycin, 1 mM sodium pyruvate and 10% heat inactivated fetal bovine serum at 37° C., 5% CO2 and 95% humidified air. […] DMSO was used as the vehicle control at a final concentration of 0.1%. Following 1 hr incubation of RMPI 8226 cells with the compounds, the cells were pelleted by centrifugation at 2,000 rpm for 10 sec at room temperature and washed 3× with ice-cold 1× Dulbecco's Phosphate-Buffered Saline (DPBS, Mediatech, Herndon, Va.). DPBS washed cells were lysed on ice for 15 min in lysis buffer (20 mM HEPES, 0.5 mM EDTA, 0.05% Triton X-100, pH 7.3) supplemented with protease inhibitor cocktail (Roche Diagnostics, Indianapolis, Ind.). Cell debris was pelleted by centrifugation at 14,000 rpm for 10 min, 4° C. and supernatants (=cell lysates) were transferred to a new tube. Protein concentration was determined by the BCA protein assay kit (Pierce Biotechnology, Rockford, Ill.). […] The released coumarin (AMC) was measured fluorometrically by using λex=390 nm and λem=460 nm. The assay was performed in a microtiter plate (Corning 3904) and followed kinetically with measurements every five minutes for 2 hr. The total amount of protein used for each assay was 20 μg. The final concentration of Suc-LLVY-AMC and DMSO was 20 μM and 0.2%, respectively.

In data set [3] the target is T3, trypsin-like activity of purified rabbit muscle 20S proteasome (Oryctolagus cuniculus, UniProt G1SWK8).
T3 sequence (G1SWK8 1-271): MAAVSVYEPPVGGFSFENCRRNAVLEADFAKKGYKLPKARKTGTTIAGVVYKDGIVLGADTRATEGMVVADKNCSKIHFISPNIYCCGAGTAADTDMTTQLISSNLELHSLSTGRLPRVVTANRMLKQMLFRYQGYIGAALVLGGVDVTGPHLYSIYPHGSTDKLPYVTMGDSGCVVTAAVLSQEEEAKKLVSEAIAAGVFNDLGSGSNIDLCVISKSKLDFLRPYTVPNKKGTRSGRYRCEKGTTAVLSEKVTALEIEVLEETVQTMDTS
The experiment in a line: biochemical.

Regarding `C[C@@]12OC(=O)[C@]1([C@@H](O)[C@@H]1C=CCCC1)NC(=O)[C@@H]2CCBr` [Formula II-18], in the data set on HT-29, the “cytotoxicity against HT-29, in words” value is reported as “cytotoxic”. The “cytotoxic activity against HL-60/MX2, in words” value in the data set on HL-60/MX2 is recorded as “retained cytotoxic activity”. The “cytotoxicity against NCI-H292, in words” value in the data set with NCI-H292 is listed as “cytotoxic”. Besides, the “cytotoxic activity against MES-SA, in words” value in the data set on MES-SA is recorded as “cytotoxic activity”. Further, in the data set with B16-F10, the “cytotoxicity against B16-F10, in words” value was “cytotoxic”. In the data set with HL-60, the “cytotoxic activity against HL-60, in words” value is on record as “retained cytotoxic activity”.
Consider `C[C@H]1C(=O)N[C@@]2(C(O)[C@@H]3C=CCCC3)C(=O)O[C@@]12C` (single isomer, unassigned) [Formula II-20], for which the inhibition at 0.1 µM in data set [1] came to 57%. Also, in data set [2], the inhibition at 0.001 µM was found to be 3 ± 10%, the inhibition at 0.005 µM was determined as 31 ± 9%, the inhibition at 0.01 µM came out at 37 ± 3% and the inhibition at 0.05 µM worked out at 64 ± 3%. In data set [2], the inhibition at 0.1 µM was determined as 66 ± 3%, the inhibition at 0.5 µM was determined as 71 ± 2%, the inhibition at 1 µM was found to be 73 ± 2% and the inhibition at 10 µM was determined as 87 ± 4%. Also, the EC50 in data set [3] is 318 nM and 321 nM.

Broadly, the inhibition is the change of the read-out against control, counted positive when it falls. What is called EC50 is the concentration giving half of the maximal effect. Lower therefore signals greater potency.
